Read-outs that look alike come from different tables or passages of the source.
Key:
[1] = tested on: BV-2 cellular viability; assay: Cell viability / cytotoxicity by crystal violet staining; format: cell-based; details: Mus musculus, BV-2, read-out: Cellular toxicity (IC50 inhibiting BV-2 cellular viability)
Protocol: 100 μL of culture medium were transferred to a black 96-well plate for later use. Following removal of old culture medium, 100 μL of 4% paraformaldehyde was added for fixation. Fixation was performed for 5 minutes. Paraformaldehyde was then removed, and 100 μL of 0.05% crystal violet was added. The resultant mixture was incubated for 15 minutes, after which time crystal violet was removed and the mixture was slowly rinsed with water three times. Next, 150 μL of ethanol was added, and the mixture was incubated for 15 minutes. After incubation, the absorbance was measured at 540 nm using a spectrophotometer. Viability (%)=100× Fluorescence values of the dosing group/Fluorescence values of the blank group.
Cell viability was determined by crystal violet staining. Briefly, BV-2 cells were treated as indicated in the NO assay. The media was removed, and then 4% paraformaldehyde was added to fix the cells for 5 min. Cells were stained with 100 μL 0.05% crystal violet for 15 min and washed with water 2 times. Next, 150 μL of ethanol was added to each well, and the plate was incubated for 15 min at room temperature. Absorbance at 540 nm was measured using a SYNERGY H1 Microplate Reader.

[2] = tested on: LPS-induced proinflammatory factor nitric oxide (NO) in immunocompetent BV-2 cells; assay: NO assay: inhibition of LPS-induced NO overproduction in BV-2 cells; format: cell-based; details: Mus musculus, read-out: Antineuroinflammatory activity (IC50 inhibiting LPS-induced NO)
Protocol: BV-2 cells were seeded at a density of 5×10^4 cells per milliliter in 96-well plates. After 24 h incubation, the media was removed and changed to DMEM without FBS and penicillin-streptomycin. LPS (200 ng/mL) and different concentrations of compounds were added. After 24 h treatment, 100 μL of media was transferred to flat black 96-well micro fluor plates, and then, 10 μL of 0.05 mg/mL 2,3-diaminonaphthalene was added and incubated in the dark for 15 min. 5 μL of NaOH (3 M) was subsequently added to each well to quench the reaction. NO inhibition ratio was analyzed by a SYNERGY H1 Microplate Reader (BioTek Instruments, Carlsbad, CA, USA) with excitation at 360 nm and emission at 430 nm. The fluorescence value of the LPS-treated group was set as 100%.

[3] = Pharmacokinetic profiles in brain and plasma after oral administration; format: in vivo, mice; details: 10 mg/kg p.o.
Protocol: Following administration, mice (BALB/c, male, 20-25 g) were sacrificed at 0.5, 1, 2, 3, and 4 h. The blood and brain tissue were collected and extracted with acetonitrile.

[4] = as above; format: in vivo, mice; details: male, BALB/c, mouse, 10 mg/kg p.o., read-out: B/P ratio
[5] = tested on: morphine-treated mice; assay: Morphine-induced behavioral sensitization; format: in vivo; details: 0.2 mg/kg i.p., mice
Protocol: Mice were placed into the test chamber (40×40×40 cm^3) for 60 min to habituate the chamber for three consecutive days. […] Locomotor activity was recorded daily for 60 min after the administration of drugs. Next, all the mice were subjected to a 7-day withdrawal period (days 8-14). Subsequently, mice were given morphine (5 mg/kg, i.p.), and locomotor activity was recorded to determine behavioral sensitization.

[6] = tested on: LPS-induced IL-1β, TNF-α, IL-6, iNOS, IL-10 mRNA in BV-2 cells; assay: qRT-PCR of proinflammatory and M1/M2 marker mRNAs in LPS-treated BV-2 cells; format: cell-based; details: BV-2 cells
Protocol: Total RNA was extracted from cells or mouse brains using the RNeasy Mini Kit. Isolated RNA was reverse-transcribed into cDNA using an RT2 Easy First Strand cDNA Synthesis Kit following the manufacturer's protocols. PCR amplification was conducted using synthetic primers, SYBR Green, and a TOptical Real-Time qPCR Thermal Cycler (Analytik Jena, Thuringia, Germany). The data were analyzed by the […] method, and Rpl711 or Rpl27 was used as an internal control.

[7] = biological target: T1, CB2 Receptor (Homo sapiens, UniProt P34972); assay: cAMP measurement, forskolin-induced cAMP accumulation, CB2; format: cell-based
T1 construct: expressed in transfected cells; host or cells: GloSensor 22-F HEK293 cells
Protocol: (§1) GloSensor 22-F HEK293 cells were transfected with plasmids encoding different receptors (CB1 and CB2). After 24 h, HEK293 cells were seeded at a density of 5×10^4 cells per well in 96-well plates and incubated for 8 h; then, the medium was removed, and 200 μL of serum-free DMEM medium containing 2% GloSensor cAMP substrate (Promega) was added. After 2 h incubation, the transfected cells were stimulated with different concentrations of ligands together with […]. The luminescence was recorded using a Multimode Plate Reader (En Vision, PerkinElmer).

[8] = tested on: morphine-dependent mice; assay: Naloxone-precipitated morphine withdrawal jumps; format: in vivo; details: 2 μg/kg, 20 μg/kg, 0.2 mg/kg i.p.
Protocol: Mice were intraperitoneally injected with an escalating dose of morphine three times daily for 3 days (5, 20, and 40 mg/kg) to induce addiction. On the fourth day, mice were given morphine (40 mg/kg) or vehicle (5 mL/kg). […] The withdrawal was precipitated by naloxone. Each mouse was placed into a transparent plastic box immediately, and the number of jumps was recorded for 15 min.

[9] = biological target: T2, CB1 Receptor (Homo sapiens, UniProt P21554); assay: cAMP measurement, forskolin-induced cAMP accumulation, CB1; format: cell-based
T2 construct: expressed in transfected cells; host or cells: GloSensor 22-F HEK293 cells
Protocol: as §1

T1 sequence (P34972 whole entry): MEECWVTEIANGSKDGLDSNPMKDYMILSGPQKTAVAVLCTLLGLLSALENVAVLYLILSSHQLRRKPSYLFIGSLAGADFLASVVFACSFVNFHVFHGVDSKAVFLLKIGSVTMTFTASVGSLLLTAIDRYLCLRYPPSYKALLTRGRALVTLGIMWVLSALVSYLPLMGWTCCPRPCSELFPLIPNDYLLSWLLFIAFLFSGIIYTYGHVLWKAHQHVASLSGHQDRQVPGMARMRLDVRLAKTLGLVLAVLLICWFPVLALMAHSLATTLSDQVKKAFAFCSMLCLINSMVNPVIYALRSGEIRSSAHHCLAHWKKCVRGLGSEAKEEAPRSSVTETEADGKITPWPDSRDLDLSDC
T2 sequence (P21554 whole entry): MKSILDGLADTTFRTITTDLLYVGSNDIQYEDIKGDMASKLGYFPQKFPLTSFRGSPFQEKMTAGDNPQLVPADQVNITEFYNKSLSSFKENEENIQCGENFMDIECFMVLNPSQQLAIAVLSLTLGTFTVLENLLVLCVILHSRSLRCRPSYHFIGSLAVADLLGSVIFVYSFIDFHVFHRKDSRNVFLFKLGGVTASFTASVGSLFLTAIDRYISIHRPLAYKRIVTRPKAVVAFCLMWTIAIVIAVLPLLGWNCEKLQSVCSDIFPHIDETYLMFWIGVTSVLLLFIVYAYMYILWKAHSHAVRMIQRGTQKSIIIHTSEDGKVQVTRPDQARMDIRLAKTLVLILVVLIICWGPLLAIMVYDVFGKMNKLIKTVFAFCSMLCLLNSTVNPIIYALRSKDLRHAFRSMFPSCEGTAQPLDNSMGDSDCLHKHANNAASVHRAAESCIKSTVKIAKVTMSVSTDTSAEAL

C=CCOc1cc(CCCCC)cc(O)c1[C@@H]1C=C(C)CC[C@H]1C(=C)C [Compound 4a, (1′R,2′R)-6-(Allyloxy)-5′-methyl-4-pentyl-2′-(prop-1-en-2-yl)-1′,2′,3′,4′-tetrahydro-[1,1′-biphenyl]-2-ol]
IC50 [1]: 71.5 ± 9.4 µM
IC50 ([2]; BV-2, 24 h): 59.8 ± 15.6 µM

C=C(C)[C@@H]1CCC(C)=C[C@H]1c1c(O)cc(CC)cc1O [Compound 12a, (1′R,2′R)-4-Ethyl-5′-methyl-2′-(prop-1-en-2-yl)-1′,2′,3′,4′-tetra-hydro-[1,1′-biphenyl]-2,6-diol]
IC50 [1]: 22.6 ± 1.6 µM
IC50 ([2]; BV-2, 24 h): 2.5 ± 0.3 µM

C=C(C)[C@@H]1CCC(C)=C[C@H]1c1c(O)cc(CCCC)cc1O [Compound 12c]
IC50 [1]: 11.1 ± 2.8 µM
IC50 ([2]; BV-2, 24 h): 5 ± 3.5 µM

C=C(C)[C@@H]1CCC(C)=C[C@H]1c1c(O)cc(CCCCCCCCCCCC)cc1O [Compound 12h, (1′R,2′R)-4-Dodecyl-5′-methyl-2′-(prop-1-en-2-yl)-1′,2′,3′,4′-tet-rahydro-[1,1′-biphenyl]-2,6-diol]
IC50 [1]: > 200 µM
IC50 ([2]; BV-2, 24 h): > 200 µM

C=C(C)[C@@H]1CCC(C)=C[C@H]1c1c(O)cc(CCCCCC)cc1O [Compound 12e, (1′R,2′R)-4-Hexyl-5′-methyl-2′-(prop-1-en-2-yl)-1′,2′,3′,4′-tetra-hydro-[1,1′-biphenyl]-2,6-diol]
IC50 [1]: 19 ± 0.5 µM
IC50 ([2]; BV-2, 24 h): 2.1 ± 0.4 µM

C=C(C)[C@@H]1CCC(C)=C[C@H]1c1c(O)cc(C(C)n2ccnc2)cc1O (stereo partly drawn) [Compound 19c, (1′R,2′R)-4-(1-(1H-Imidazole-1-yl)ethyl)-5′-methyl-2′-(prop-1-en-2-yl)-1′,2′,3′,4′-tetrahydro-[1,1′-biphenyl]-2,6-diol]
IC50 [1]: 32.6 ± 3.2 µM
IC50 ([2]; BV-2, 24 h): 4.4 ± 0.5 µM

C=C(C)[C@@H]1CCC(C)=C[C@H]1c1c(O)cc(CCCCCCC)cc1O [Compound 12f, (1′R,2′R)-4-Heptyl-5′-methyl-2′-(prop-1-en-2-yl)-1′,2′,3′,4′-tetra-hydro-[1,1′-biphenyl]-2,6-diol]
IC50 [1]: 14.1 ± 0.7 µM
IC50 ([2]; BV-2, 24 h): 42 ± 9.3 µM

C=C(C)[C@@H]1CCC(C)=C[C@H]1c1c(O)cc(CCCCC)cc1OCC [Compound 2a, (1′ R,2′R)-6-Ethoxy-5′-methyl-4-pentyl-2′-(prop-1-en-2-yl)-1′,2′,3′,4′-tetrahydro-[1,1′-biphenyl]-2-ol]
IC50 [1]: 176 ± 7.4 µM
IC50 ([2]; BV-2, 24 h): 167 ± 16.9 µM

C=C(C)[C@@H]1CCC(C)=C[C@H]1c1c(O)cc(CCCCC)cc1OCCC [Compound 3a, (1′R,2′R)-5′-Methyl-4-pentyl-2′-(prop-1-en-2-yl)-6-propoxy-1′,2′,3′,4′-tetrahydro-[1,1′-biphenyl]-2-ol]
IC50 [1]: > 200 µM
IC50 ([2]; BV-2, 24 h): > 200 µM

C=C(C)[C@@H]1CCC(C)=C[C@H]1c1c(OC)cc(CCCCC)cc1OC [Compound 1b, (1R,2R)-2′,6′-Dimethoxy-5-methyl-4′-pentyl-2-(prop-1-en-2-yl)-1,2,3,4-tetrahydro-1,1′-biphenyl]
IC50 [1]: > 200 µM
IC50 ([2]; BV-2, 24 h): > 200 µM

C=C(C)[C@@H]1CCC(C)=C[C@H]1c1c(OCC)cc(CCCCC)cc1OCC [Compound 2b, (1R,2R)-2′,6′-Diethoxy-5-methyl-4′-pentyl-2-(prop-1-en-2-yl)-1,2,3,4-tetrahydro-1,1′-biphenyl]
IC50 [1]: > 200 µM
IC50 ([2]; BV-2, 24 h): > 200 µM

C=C(C)[C@@H]1CCC(C)=C[C@H]1c1c(O)cc(CCCCC)cc1O [CBD, (1′R,2′R)-5′-Methyl-4-pentyl-2′-(prop-1-en-2-yl)-1′,2′,3′,4′-tetra-hydro-[1,1′-biphenyl]-2,6-diol, reference compound]
AUC0→t ([3]; brain, mice): 66.7 ng·h/g
AUC0→∞ ([3]; brain, mice): 85.0 ng·h/g
MRT ([3]; brain, mice): 42 min
Tmax ([3]; brain, mice): 30 min
t1/2 ([3]; brain, mice): 30 min
Kp ([3]; male, BALB/c, mouse, brain / plasma, oral, read-out: B/P ratios within the first 3 h after administration): < 1
Kp at 0.5 h ([3]; male, BALB/c, mouse, brain / plasma, po, 0.5 h, read-out: B/P ratio): 0.93 ± 0.176
Kp at 1 h ([3]; male, BALB/c, mouse, brain / plasma, po, 1 h, read-out: B/P ratio): 0.839 ± 0.144
Kp at 0.083 h ([4]; 0.083 h): 0.864 ± 0.227
Kp at 0.25 h ([4]; 0.25 h): 0.358 ± 0.106
development of morphine-induced behavioral sensitization (induction period) [5]: not obvious
IC50 [1]: 8.5 ± 0.9 µM
LPS-induced overexpression of IL-1β mRNA [6]: inhibited IL-1β overexpression only at 10 μM
LPS-induced overexpression of IL-6 mRNA [6]: failed to inhibit
LPS-induced overexpression of TNF-α mRNA [6]: failed to inhibit
LPS-induced IL-6 mRNA expression at 10 μM ([6]; 10 μM): augmented
CB2 Receptor ΔEmax ([7]; HEK293 transfected with CB2, forskolin-induced cAMP): 30.2 ± 0.9%
CB2 receptor activity ([7]; cAMP assay): slight CB1/CB2 receptor activity
naloxone-precipitated withdrawal jumps [8]: failed to significantly alleviate
IC50 ([2]; BV-2 cells, LPS 200 ng/mL, 24 h): 12.3 ± 3.1 µM
CB1 Receptor ΔEmax ([9]; HEK293 transfected with CB1, forskolin-induced cAMP): 13.3 ± 0.1%
CB1 receptor activity ([9]; cAMP assay): slight CB1/CB2 receptor activity

C#CCOc1cc(CCCCC)cc(O)c1[C@@H]1C=C(C)CC[C@H]1C(=C)C [Compound 5a, (1′R,2′R)-5′-Methyl-4-pentyl-2′-(prop-1-en-2-yl)-6-(prop-2-yn-1-yloxy)-1′,2′,3′,4′-tetrahydro-[1,1′-biphenyl]-2-ol]
IC50 [1]: 65 ± 7.9 µM
IC50 ([2]; BV-2, 24 h): 99.6 ± 16.3 µM

C=C(C)[C@@H]1CCC(C)=C[C@H]1c1c(O)cc(CCCCCCCC)cc1O [Compound 12g, (1′R,2′R)-5′-Methyl-4-octyl-2′-(prop-1-en-2-yl)-1′,2′,3′,4′-tetra-hydro-[1,1′-biphenyl]-2,6-diol]
IC50 [1]: 26.2 ± 5.2 µM
IC50 ([2]; BV-2, 24 h): 174 ± 33 µM

C#CCOc1cc(CCCCC)cc(OCC#C)c1[C@@H]1C=C(C)CC[C@H]1C(=C)C [Compound 5b, (1R,2R)-5-Methyl-4′-pentyl-2-(prop-1-en-2-yl)-2′,6′-bis(prop-2-yn-1-yloxy)-1,2,3,4-tetrahydro-1,1′-biphenyl]
IC50 [1]: > 200 µM
IC50 ([2]; BV-2, 24 h): > 200 µM

C=C(C)[C@@H]1CCC(C)=C[C@H]1c1c(O)cc(CCC)cc1O [Compound 12b, (1′R,2′R)-5′-Methyl-2′-(prop-1-en-2-yl)-4-propyl-1′,2′,3′,4′-tetra-hydro-[1,1′-biphenyl]-2,6-diol, reference compound]
IC50 [1]: 18.3 ± 4.4 µM
IC50 ([2]; BV-2, 24 h): 5.3 ± 2.9 µM

C=CCOc1cc(CCCCC)cc(OCC=C)c1[C@@H]1C=C(C)CC[C@H]1C(=C)C [Compound 4b, (1R,2R)-2′,6′-Bis(allyloxy)-5-methyl-4′-pentyl-2-(prop-1-en-2-yl)-1,2,3,4-tetrahy-dro-1,1′-biphenyl]
IC50 [1]: > 200 µM
IC50 ([2]; BV-2, 24 h): > 200 µM

C=C(C)[C@@H]1CCC(C)=C[C@H]1c1c(OCCC)cc(CCCCC)cc1OCCC [Compound 3b, (1R,2R)-5-Meth-yl-4′-pentyl-2-(prop-1-en-2-yl)-2′,6′-dipropoxy-1,2,3,4-tetrahydro-1,1′-biphenyl]
IC50 [1]: > 200 µM
IC50 ([2]; BV-2, 24 h): > 200 µM
